{"source": "patent EP1908478B1", "about": "“Pharmaceutical preparation and method of treatment of human malignancies with arginine deprivation” (Bio-Cancer Treatment International Limited, priority 2002, dated 2003)", "key": {"[1]": {"molecular_target": "T1, recombinant human Arginase I, native (non-pegylated), 6xHis-tagged, B. subtilis-expressed, SEQ ID NO: 3 (Homo sapiens, UniProt P05089)", "T1 sequence (P05089 1-322)": "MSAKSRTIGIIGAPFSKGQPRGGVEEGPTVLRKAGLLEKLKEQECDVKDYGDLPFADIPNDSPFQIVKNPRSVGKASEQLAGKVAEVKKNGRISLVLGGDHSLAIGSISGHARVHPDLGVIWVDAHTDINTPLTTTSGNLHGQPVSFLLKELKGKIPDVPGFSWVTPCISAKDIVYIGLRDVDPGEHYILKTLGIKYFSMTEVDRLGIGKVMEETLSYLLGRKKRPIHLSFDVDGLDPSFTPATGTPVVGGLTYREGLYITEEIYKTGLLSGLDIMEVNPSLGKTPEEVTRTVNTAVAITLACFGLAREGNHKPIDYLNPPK", "test": "Arginase activity, kinetic properties (method of Ikemoto et al. 1990)", "type": "biochemical", "conditions": "substrate arginine"}, "[2]": {"molecular_target": "T2, pegylated Arginase (recombinant human Arginase I, SEQ ID NO: 3, modified with mPEG-SPA, MW 5,000) (Homo sapiens, UniProt P05089)", "T2 sequence (P05089 1-322)": "T1 sequence (P05089 1-322)", "test": "Arginase activity, kinetic properties (method of Ikemoto et al. 1990)", "type": "biochemical", "conditions": "substrate arginine", "description": "Moreover, about 1 mM of Mn^2+ ions and a temperature of 30-50 degree C are required to achieve maximum activity for the native Arginase."}, "human liver Arginase": {"molecular_target": "human liver Arginase (Homo sapiens, UniProt P05089)", "conditions": "published value in literature; substrate arginine; cited from earlier work"}}, "data": [{"compound": "N=C(N)NCCC[C@H](N)C(=O)O", "note": "[arginine]", "values": [{"measurement": "Km", "setting": "[1]", "result": "1900 ± 700", "unit": "µM"}, {"measurement": "Vmax", "setting": "[1]", "result": 518, "unit": "µmol urea min^-1. mM^-1"}, {"measurement": "kcat", "setting": "[1]", "result": "2.0 ± 0.5", "unit": "s⁻¹"}, {"measurement": "Km", "setting": "[2]", "result": "2900 ± 300", "unit": "µM"}, {"measurement": "Vmax", "setting": "[2]", "result": 360, "unit": "µmol urea min^-1 mM^-1"}, {"measurement": "Km", "setting": "human liver Arginase", "result": 2600, "unit": "µM"}]}]}
